Here are results for five molecules from patent publication US6426080B1, “Cosmetic preparation of active substances with high protection factor against free radicals” (Coty, B.V., priority 1998, dated 2002).

For test [1] the following is noted: standard antioxidants, known parameter; cited from earlier work.
Test [2] can be described thus: activity against free radicals compared with SOD. The test is classed as biochemical. An excerpt: The Quebracho bark extract according to the invention or its hydrolysis product has a very high portion of proantho-cyanidines representing condensed tannins. […] The activity against free radicals was compared with that of SOD and found to be 42% for a 1 percent by weight solution of the extract (SOD 4%), 83% for a 2.5% by weight solution (SOD 15%)and 100% for a 5% by weight solution (SOD 38%). Preferably the extract (a) contains at least 95 percent by weight of proanthocyanidine oligomers and up to 5 percent by weight of gallic acid, in particular at least 99 percent by weight of proanthocyanidine oligomers and up to 1 percent by weight of gallic acid.

As for `Cc1c(C)c2c(c(C)c1O)CCC(C)(CCCC(C)CCCC(C)CCCC(C)C)O2` (racemic) [DL-α-tocopherol], in test [1], the “radical protection factor (RPF)” value is on record as 41200 ×10^14 radicals/mg.

In the case of `CC(=O)Oc1c(C)c(C)c2c(c1C)CCC(C)(CCC[C@H](C)CCC[C@H](C)CCCC(C)C)O2` (stereo partly shown) [a-tocopherol acetate], the “radical protection factor (RPF)” value in test [1] is “about 48 ×10^14 radicals/mg”.

As to `CC(=O)OC/C=C(C)/C=C/C=C(C)/C=C/C1=C(C)CCCC1(C)C` [all-trans retinal acetate], the “radical protection factor (RPF)” value in test [1] is 196 ×10^14 radicals/mg.

Regarding `CC1=C(/C=C/C(C)=C/C=C/C(C)=C/CO)C(C)(C)CCC1` [all-trans-retinole], the “radical protection factor (RPF)” value in test [1] is given as 827 ×10^14 radicals/mg.

As to superoxide dismutase [SOD], the figures for the “activity against free radicals” value in test [2] (1 percent by weight solution), in test [2] (2.5% by weight solution) and in test [2] (5% by weight solution) were 4%, 15% and 38%, respectively.
